How the values were obtained:
Format in all cases: in vivo
selected test plants = test: Post-emergence action in a different test arrangement (Table B3); design: key to Post-emergence action (different test arrangement), Nasturtium / Post-emergence action (different test arrangement), Stellaria / Post-emergence action (different test arrangement), Solanum: 10=total damage; 0=no action; Ratings of from 10 to 7 (especially from 10 to 8) indicate good to very good herbicidal action; conditions: 250 g a.i./ha
[1] = test system: monocotyledonous and dicotyledonous test plants; test: Herbicidal action prior to emergence of the plants (pre-emergence action); design: key: 10=total damage; 0=no action; Ratings of from 10 to 7 (especially from 10 to 8) indicate good to very good herbicidal action; conditions: 250 g a.i./ha, pre-emergence spray, evaluated after 3 weeks, scale 10=total damage, 0=no action
Description: Herbicidal Action Prior to Emergence of the Plants (Pre-Emergence Action)
Monocotyledonous and dicotyledonous test plants are sown in standard soil in plastic pots Immediately after sowing, the test compounds, in the form of an aqueous suspension (prepared from a 25% wettable powder (Example F3, b) according to WO 97/34485) or in the form of an emulsion (prepared from a 25% emulsifiable concentrate (Example F1, c)), are applied by spraying in a concentration corresponding to 125 g or 250 g of active ingredient/ha (500 litres of water/ha). The test plants are then grown in a greenhouse under optimum conditions. After a test duration of 3 weeks, the test is evaluated in accordance with a scale of nine ratings (10=total damage, 0=no action). Ratings of from 10 to 7 (especially from 10 to 8) indicate good to very good herbicidal action.

[2] = test system: monocotyledonous and dicotyledonous test plants; test: Post-emergence herbicidal action; design: key: 10=total damage; 0=no action; Ratings of from 10 to 7 (especially from 10 to 8) indicate good to very good herbicidal action; conditions: 250 g a.i./ha, about 18 days, rating 0-10
Procedure: Post-Emergence Herbicidal Action
In a greenhouse, monocotyledonous and dicotyledonous test plants are grown in standard soil in plastic pots and at the 4- to 6-leaf stage are sprayed with an aqueous suspension of the test compounds of formula I prepared from a 25% wettable powder (Example F3, b) according to WO 97/34485) or with an emulsion of the test compounds of formula I prepared from a 25% emulsifiable concentrate (Example F1, c) according to WO 97/34485), in a concentration corresponding to 125 g or 250 g of active ingredient/ha (500 litres of water/ha). The test plants are then grown on in a greenhouse under optimum conditions. After a test duration of about 18 days, the test is evaluated in accordance with a scale of nine ratings (10=total damage, 0=no action). Ratings of from 10 to 7 (especially from 10 to 8) indicate good to very good herbicidal action.

Structure (SMILES) | Post-emergence action (different test arrangement), Amaranthus (selected test plants) | Post-emergence action (different test arrangement), Nasturtium (selected test plants) | Post-emergence action (different test arrangement), Solanum (selected test plants) | Post-emergence action (different test arrangement), Stellaria (selected test plants) | Pre-emergence action: Abutilon (rating) [1] | Pre-emergence action: Amaranthus (rating) [1] | Pre-emergence action: Chenopodium (rating) [1] | Pre-emergence action: Cyperus (rating) [1] | Pre-emergence action: Echinochloa (rating) [1] | Pre-emergence action: Panicum (rating) [1] | Pre-emergence action: Scirpus (rating) [1] | Pre-emergence action: Sida (rating) [1] | Post-emergence action, Amaranthus [2] | Post-emergence action, Chenopodium [2] | Post-emergence action, Echinochloa [2] | Post-emergence action, Euphorbia [2] | Post-emergence action, Ipomea [2] | Post-emergence action, Sinapis [2] | Post-emergence action, Stellaria [2] | Post-emergence action, Xanthium [2]
O=C1CCCC(O)=C1C(=O)c1ccc(C(F)(F)F)nc1CN1CCCC1=O [Compound A1.219] | 9 | 10 | 9 | 10 | – | – | – | – | – | – | – | – | – | – | – | – | – | – | – | –
CC1CCN(Cc2nc(C(F)(F)F)ccc2C(=O)C2=C(O)CCCC2=O)C1=O (centres unmarked) [Compound A1.222] | 9 | 10 | 9 | 9 | – | – | – | – | – | – | – | – | – | – | – | – | – | – | – | –
Cn1ncc(C(=O)c2ccc(C(F)(F)F)nc2CN2CCC2=O)c1O [Compound B1.225] | 8 | 10 | 9 | 10 | – | – | – | – | – | – | – | – | – | – | – | – | – | – | – | –
Cn1ncc(C(=O)c2ccc(C(F)(F)F)nc2CN2CCCC2=O)c1O [Compound B1.223] | 8 | 10 | 9 | 10 | – | – | – | – | – | – | – | – | – | – | – | – | – | – | – | –
CC(C)N1CC(=O)N(Cc2nc(C(F)(F)F)ccc2C(=O)C2=C(O)CCCC2=O)C1=O [Compound A1.175] | 7 | 8 | 9 | 7 | – | – | – | – | – | – | – | – | – | – | – | – | – | – | – | –
CN1CCN(Cc2nc(C(F)(F)F)ccc2C(=O)C2=C(O)CCCC2=O)C1=O [Compound A1.213] | 9 | 9 | 9 | 9 | – | – | – | – | – | – | – | – | – | – | – | – | – | – | – | –
Cn1ncc(C(=O)c2ccc(C(F)(F)F)nc2Cn2cnn(C)c2=O)c1O [Compound B1.080] | – | – | – | – | 8 | 0 | 10 | 9 | 10 | 10 | 9 | 0 | 10 | 10 | 9 | 10 | 10 | 10 | 10 | 8
O=C1CCCC(O)=C1C(=O)c1ccc(C(F)(F)F)nc1COCCN1CCCC1=O [Compound A1.220] | 9 | 10 | 9 | 10 | – | – | – | – | – | – | – | – | – | – | – | – | – | – | – | –
COc1nn(Cc2nc(C(F)(F)F)ccc2C(=O)C2=C(O)CCCC2=O)c(=O)s1 [Compound A1.091] | – | – | – | – | 10 | 8 | 9 | 8 | 9 | 4 | 9 | 7 | 9 | 10 | 9 | 8 | 9 | 8 | 10 | 9
Cn1ncc(C(=O)c2ccc(C(F)(F)F)nc2CN2CN(c3ccc(Cl)cc3)CC2=O)c1O [Compound B1.238] | 9 | 8 | 9 | 7 | – | – | – | – | – | – | – | – | – | – | – | – | – | – | – | –
CC1CCC(=O)N1Cc1nc(C(F)(F)F)ccc1C(=O)C1=C(O)CCCC1=O (centres unmarked) [Compound A1.223] | 8 | 10 | 9 | 9 | – | – | – | – | – | – | – | – | – | – | – | – | – | – | – | –
CC1CCN(Cc2nc(C(F)(F)F)ccc2C(=O)c2cnn(C)c2O)C1=O (centres unmarked) [Compound B1.226] | 8 | 10 | 9 | 9 | – | – | – | – | – | – | – | – | – | – | – | – | – | – | – | –
Cc1nn(Cc2nc(C(F)(F)F)ccc2C(=O)C2=C(O)C(C)(C)C(=O)C(C)(C)C2=O)c(=O)o1 [Compound A8.008] | – | – | – | – | 10 | – | 10 | 0 | 10 | 10 | 0 | 10 | 9 | 8 | 8 | 8 | 9 | 7 | 6 | 9
COc1nn(Cc2nc(C(F)(F)F)ccc2C(=O)c2cnn(C)c2O)c(=O)s1 [Compound B1.096] | – | – | – | – | 10 | 10 | 10 | 7 | – | 7 | 7 | 7 | 7 | 10 | 6 | 7 | 7 | 9 | 8 | 8
Cn1ncn(Cc2nc(C(F)(F)F)ccc2C(=O)C2=C(O)C3CCC(C3)C2=O)c1=O (centres unmarked) [Compound A6.073] | – | – | – | – | 10 | 9 | 10 | 7 | 0 | 10 | 10 | 9 | 10 | 10 | 9 | 9 | 10 | 10 | 9 | 9
Cn1ncn(Cc2nc(C(F)(F)F)ccc2C(=O)C2=C(O)CCCC2=O)c1=O [Compound A1.073] | – | – | – | – | 10 | 10 | 10 | 10 | 3 | 10 | 10 | 9 | 10 | 10 | 9 | 9 | 10 | 10 | 10 | 9
